The values below come from patent US12171229B2, “Heteroaryl-triazole and heteroaryl-tetrazole compounds as pesticides” (BAYER AKTIENGESELLSCHAFT, priority 2018, dated 2024).

Each structure is given as a SMILES string.

Common to all, as to format: in vivo
For test [1], the system named is cattle ticks (Boophilus microplus) strane Parhurst, SP-resistant. Put plainly: Boophilus microplus dip test. The settings on record: Rhipicephalus microplus, 168 h, engorged adult female cattle ticks, egg deposition after 7 days, read-out: efficacy (infertile eggs). In outline:
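Engorged adult female SP-resistant Parhurst ticks (8-10 per tube) were dipped in aqueous compound dilutions from DMSO until fully wetted, then held in a climate chamber. Fertile egg deposition was checked after 7 days, with non-obvious eggs kept to hatching (~42 days). Efficacy: 100% = all eggs infertile, 0% = all fertile.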

The next test has as its system Spodoptera frugiperda. Put plainly: Spodoptera frugiperda spray test. The settings on record: 168 h, after 7 days, larvae on maize leaf sections. The method, boiled down:
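Percent larval kill read at day 7 on Zea mays leaf pieces that were spray-treated and, after drying, infested. Spray preparations made by dilution with emulsifier-containing water (1000 ppm).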

The next test relates to Phaedon cochleariae. Put plainly: Phaedon cochleariae spray test. Particulars: foliar, 168 h, after 7 days, larvae on Chinese cabbage leaf disks. The method, then:
Phaedon Cochleariae—Spray Test
To produce a suitable preparation of active compound, 1 part by weight of active compound is mixed with the stated amount of solvents and is diluted with water, containing an emulsifier concentration of 1000 ppm, to the desired concentration. Further test concentrations are prepared by dilution with emulsifier containing water.
Chinese cabbage (Brassica pekinensis) leaf disks are sprayed with a preparation of the active ingredient of the desired concentration. Once dry, the leaf disks are infested with mustard beetle larvae (Phaedon cochleariae).
After 7 days mortality in % is determined. 100% means all beetle larvae have been killed and 0% means none of the beetle larvae have been killed.

The test system of another test is Myzus persicae. Put plainly: Myzus persicae oral test. Particulars: 120 h, after 5 days. In outline:
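Aphid mortality (%) was recorded 5 days after a mixed Myzus persicae population began sucking, through parafilm, on compound solutions (acetone stock diluted with water) combined with sugar-supplemented IPL41 medium.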

For test [2], the system named is Blattella germanica strain PAULINIA
Briefly: whole plant or invertebrate. The settings on record: read-out: efficacy (mortality). The method, then:
Blattella Germanica Test (BLTTGE Surface Treatment & Contact Assay)
Solvent: Aceton+2000 ppm rapeseed oil methyl ester (RME)
In order to produce a sufficient, active ingredient containing solution it is necessary to solve the test compound in the solvent-mix (acetone at 2 mg/ml/RME 2000 ppm). This solution is pipetted onto a glazed tile and after evaporation of the acetone, adult animals of the species Blattella germanica strain PAULINIA are placed onto the dried surface. The exposure time is 30 minutes.
Mortality in percent (%) is determined 24 hours after contact of the insects to the treated surface. 100% mortality means that all tested insects are dead, whereas 0% means that no insect died.

The term mortality denotes the percentage killed. Turning to `CC(c1ncnn1-c1ccc(C#N)cn1)N(CC1CC1)C(=O)c1cc(Cl)cc(C(F)(F)F)c1` (stereo not shown) [Example I-007], the pest or weed control at 100 ppm in test [1] came out at 80%. In the test with Spodoptera frugiperda (100 g/ha), the mortality at 100 g/ha was determined as 100%. Further, the mortality at 500 g/ha with Spodoptera frugiperda (500 g/ha) and in the test with Phaedon cochleariae was 100% each time. The mortality at 4 ppm in the test with Myzus persicae (4 ppm) was 90%. In the test on Myzus persicae (20 ppm), this molecule yielded a mortality at 20 ppm of 100%. For the same molecule, the mortality at 20 mg/m2 in test [2] is 80 to 100%.
